Experimental data from patent publication US20210070748A1, “INHIBITORS OF BRUTONS TYROSINE KINASE” (Pharmacyclics LLC, priority 2015, published 2021).

How the values were obtained:
Format in all cases: biochemical
JAK3 = target: T1, JAK3 (Homo sapiens, UniProt P52333); assay: Inhibition of a panel of kinases, in vitro HotSpot kinase assay: JAK3; details: D-compounds panel data; 1 μM ATP; read-out: IC50 JAK3
T1 sequence (P52333 1-1124): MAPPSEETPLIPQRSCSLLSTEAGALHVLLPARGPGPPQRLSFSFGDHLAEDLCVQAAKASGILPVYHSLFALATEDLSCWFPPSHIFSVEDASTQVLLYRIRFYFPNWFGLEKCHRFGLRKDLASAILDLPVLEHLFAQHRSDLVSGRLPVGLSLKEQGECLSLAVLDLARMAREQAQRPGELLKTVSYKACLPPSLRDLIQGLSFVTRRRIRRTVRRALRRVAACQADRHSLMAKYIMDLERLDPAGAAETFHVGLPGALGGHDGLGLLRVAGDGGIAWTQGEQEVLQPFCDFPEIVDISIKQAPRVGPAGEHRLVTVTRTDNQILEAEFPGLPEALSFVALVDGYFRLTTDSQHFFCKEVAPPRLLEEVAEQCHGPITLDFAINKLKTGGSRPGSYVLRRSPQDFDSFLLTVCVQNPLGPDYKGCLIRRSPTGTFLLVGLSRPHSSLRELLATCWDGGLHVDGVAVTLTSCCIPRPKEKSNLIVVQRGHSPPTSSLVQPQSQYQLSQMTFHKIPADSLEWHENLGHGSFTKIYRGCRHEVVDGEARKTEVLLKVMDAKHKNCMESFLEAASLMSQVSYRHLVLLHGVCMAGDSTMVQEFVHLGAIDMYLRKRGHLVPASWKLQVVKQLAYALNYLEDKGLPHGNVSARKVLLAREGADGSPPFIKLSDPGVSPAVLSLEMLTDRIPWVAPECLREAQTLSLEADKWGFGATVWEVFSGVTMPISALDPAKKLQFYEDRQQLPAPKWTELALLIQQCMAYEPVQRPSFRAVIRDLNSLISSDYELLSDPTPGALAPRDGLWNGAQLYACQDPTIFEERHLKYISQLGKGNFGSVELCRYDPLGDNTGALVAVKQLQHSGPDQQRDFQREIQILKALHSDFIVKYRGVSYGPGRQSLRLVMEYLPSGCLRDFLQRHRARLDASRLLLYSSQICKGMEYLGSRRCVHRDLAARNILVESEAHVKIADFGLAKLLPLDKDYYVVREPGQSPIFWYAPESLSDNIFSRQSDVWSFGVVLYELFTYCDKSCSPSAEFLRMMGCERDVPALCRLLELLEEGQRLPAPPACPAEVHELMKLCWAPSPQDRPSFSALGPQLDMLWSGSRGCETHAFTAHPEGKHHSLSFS

LCK = LCK (Homo sapiens, UniProt P06239); assay: Inhibition of a panel of kinases, in vitro HotSpot kinase assay: LCK; details: D-compounds panel data; 1 μM ATP; read-out: IC50 LCK
ITK = target: T2, ITK (Homo sapiens, UniProt Q08881); assay: Inhibition of a panel of kinases, in vitro HotSpot kinase assay: ITK; details: D-compounds panel data; 1 μM ATP
T2 sequence (Q08881 1-620): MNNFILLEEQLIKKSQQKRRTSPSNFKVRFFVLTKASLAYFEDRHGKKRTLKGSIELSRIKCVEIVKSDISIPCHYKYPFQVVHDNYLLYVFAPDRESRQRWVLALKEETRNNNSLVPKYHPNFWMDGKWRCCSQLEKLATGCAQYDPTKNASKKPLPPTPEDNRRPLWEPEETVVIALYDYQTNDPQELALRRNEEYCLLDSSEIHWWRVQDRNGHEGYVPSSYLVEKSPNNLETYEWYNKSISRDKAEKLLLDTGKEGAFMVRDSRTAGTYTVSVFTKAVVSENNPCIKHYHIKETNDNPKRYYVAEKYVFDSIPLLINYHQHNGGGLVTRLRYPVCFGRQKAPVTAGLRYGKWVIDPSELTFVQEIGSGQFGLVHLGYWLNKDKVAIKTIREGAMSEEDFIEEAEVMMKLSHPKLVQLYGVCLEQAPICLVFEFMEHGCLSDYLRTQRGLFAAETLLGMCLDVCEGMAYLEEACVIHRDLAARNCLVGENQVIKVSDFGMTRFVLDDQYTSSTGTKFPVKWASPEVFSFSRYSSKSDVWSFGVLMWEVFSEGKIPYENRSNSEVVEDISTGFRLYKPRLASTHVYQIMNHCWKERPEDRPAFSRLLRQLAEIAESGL
Protocol: (§1) The degree of inhibition of a panel of kinases is determined using the in vitro HotSpot kinase assay (purified enzymes, ^33P-ATP, an appropriate substrate and 1 μM ATP).

EGFR = EGFR (Homo sapiens, UniProt P00533); assay: Inhibition of a panel of kinases, in vitro HotSpot kinase assay: EGFR; details: D-compounds panel data; 1 μM ATP
Protocol: as §1

SRC = SRC (Homo sapiens, UniProt P12931); assay: Inhibition of a panel of kinases, in vitro HotSpot kinase assay: SRC; details: D-compounds panel data; 1 μM ATP
Protocol: as §1

SRC, sequence (P12931 whole entry): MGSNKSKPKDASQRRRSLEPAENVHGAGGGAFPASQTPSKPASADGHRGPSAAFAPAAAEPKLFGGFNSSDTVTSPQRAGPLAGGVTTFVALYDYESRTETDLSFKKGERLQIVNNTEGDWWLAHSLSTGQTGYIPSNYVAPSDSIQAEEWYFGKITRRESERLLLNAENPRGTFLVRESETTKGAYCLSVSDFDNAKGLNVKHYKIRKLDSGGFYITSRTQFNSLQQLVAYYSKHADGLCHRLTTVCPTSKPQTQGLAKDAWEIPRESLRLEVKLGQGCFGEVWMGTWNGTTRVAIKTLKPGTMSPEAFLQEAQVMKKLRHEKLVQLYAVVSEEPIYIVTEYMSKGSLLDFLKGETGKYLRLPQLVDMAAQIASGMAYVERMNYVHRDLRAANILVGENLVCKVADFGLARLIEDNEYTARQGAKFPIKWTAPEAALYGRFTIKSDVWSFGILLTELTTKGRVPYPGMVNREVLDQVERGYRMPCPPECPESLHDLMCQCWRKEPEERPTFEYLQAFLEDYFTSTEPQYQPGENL
EGFR, sequence (P00533 25-1210): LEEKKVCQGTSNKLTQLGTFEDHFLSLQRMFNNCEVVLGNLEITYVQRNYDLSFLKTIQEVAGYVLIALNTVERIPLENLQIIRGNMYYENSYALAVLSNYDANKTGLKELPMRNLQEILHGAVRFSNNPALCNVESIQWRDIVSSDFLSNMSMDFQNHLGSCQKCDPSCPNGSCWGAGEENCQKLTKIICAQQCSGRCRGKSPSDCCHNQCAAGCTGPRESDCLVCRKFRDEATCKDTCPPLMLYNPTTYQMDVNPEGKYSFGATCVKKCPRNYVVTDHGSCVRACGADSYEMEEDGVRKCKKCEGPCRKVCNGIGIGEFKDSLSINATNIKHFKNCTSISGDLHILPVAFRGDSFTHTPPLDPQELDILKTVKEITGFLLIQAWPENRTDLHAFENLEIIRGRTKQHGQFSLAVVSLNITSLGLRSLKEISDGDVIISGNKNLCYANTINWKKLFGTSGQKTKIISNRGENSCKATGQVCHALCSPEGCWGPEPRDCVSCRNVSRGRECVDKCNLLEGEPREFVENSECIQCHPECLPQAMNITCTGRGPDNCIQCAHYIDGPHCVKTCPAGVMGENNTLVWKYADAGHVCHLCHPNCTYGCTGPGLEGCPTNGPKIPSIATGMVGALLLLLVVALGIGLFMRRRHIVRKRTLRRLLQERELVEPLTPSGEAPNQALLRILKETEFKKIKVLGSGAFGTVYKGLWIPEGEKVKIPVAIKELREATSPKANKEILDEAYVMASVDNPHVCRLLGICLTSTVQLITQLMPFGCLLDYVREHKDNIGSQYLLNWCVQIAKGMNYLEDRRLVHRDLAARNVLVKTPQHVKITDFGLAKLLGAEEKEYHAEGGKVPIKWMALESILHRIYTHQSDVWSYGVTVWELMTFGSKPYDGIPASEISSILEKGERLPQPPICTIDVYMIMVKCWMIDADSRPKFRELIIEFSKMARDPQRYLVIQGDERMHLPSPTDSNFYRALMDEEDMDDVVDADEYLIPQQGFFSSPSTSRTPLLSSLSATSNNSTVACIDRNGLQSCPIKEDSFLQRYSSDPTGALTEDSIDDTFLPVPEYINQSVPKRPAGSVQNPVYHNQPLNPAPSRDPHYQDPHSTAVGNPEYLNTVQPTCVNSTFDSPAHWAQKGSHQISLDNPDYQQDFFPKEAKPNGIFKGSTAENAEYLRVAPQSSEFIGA
LCK, sequence (P06239 whole entry): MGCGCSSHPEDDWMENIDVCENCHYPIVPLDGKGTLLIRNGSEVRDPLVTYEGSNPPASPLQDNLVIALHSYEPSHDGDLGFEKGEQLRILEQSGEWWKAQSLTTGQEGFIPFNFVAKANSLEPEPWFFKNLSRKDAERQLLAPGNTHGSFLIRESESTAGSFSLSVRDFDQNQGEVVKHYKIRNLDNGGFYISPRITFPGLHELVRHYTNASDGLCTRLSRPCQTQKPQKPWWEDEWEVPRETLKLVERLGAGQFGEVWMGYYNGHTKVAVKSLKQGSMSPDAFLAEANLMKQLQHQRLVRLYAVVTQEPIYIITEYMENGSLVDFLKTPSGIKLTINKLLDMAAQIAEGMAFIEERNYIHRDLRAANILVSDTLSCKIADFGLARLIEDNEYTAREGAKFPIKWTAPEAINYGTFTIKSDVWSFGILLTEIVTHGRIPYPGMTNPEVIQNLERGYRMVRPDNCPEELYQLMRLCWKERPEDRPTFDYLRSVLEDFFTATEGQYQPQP

| IC50 (JAK3) [nM] | IC50 (LCK) [nM] | IC50 (ITK) [nM] | IC50 (EGFR) [nM] | IC50 (SRC) [nM] | Structure (SMILES) |
| --- | --- | --- | --- | --- | --- |
| 100 to 1000 | 10 to 100 | 10 to 100 | 100 to 1000 | 10 to 100 | C[C@@H]1[C@H](NC(=O)N(C)C)CCCN1c1cnc(C(N)=O)c(Nc2ccc(OC3CCN(C4CCCC4)CC3)cc2)n1 [Example D-102, 3-({4-[(1-cyclopentylpiperidin-4-yl)oxy]phenyl}amino)-5-[(2R,3R)-3-[(dimethylcarbamoyl)amino]-2-methylpiperidin-1-yl]pyrazine-2-carboxamide] |
| > 10000 | 100 to 1000 | 100 to 1000 | 100 to 1000 | 1000 to 10000 | C[C@@H]1[C@H](NC(=O)c2ccc(C3CC3)cc2)CCCN1c1cnc(C(N)=O)c(Nc2ccc(N3CCN(C)CC3)cc2F)n1 [Example D-103, 5-[(2R,3R)-3-(4-cyclopropylbenzamido)-2-methylpiperidin-1-yl]-3-{[2-fluoro-4-(4-methylpiperazin-1-yl)phenyl]amino}pyrazine-2-carboxamide] |
| 100 to 1000 | 10 to 100 | 10 to 100 | 100 to 1000 | 10 to 100 | C[C@@H]1[C@H](NC(=O)c2ccc(C3CC3)cc2)CCCN1c1cnc(C(N)=O)c(Nc2ccc(OC3CCCN(C)C3)cc2)n1 (stereo partly drawn) [Example D-105, 5-[(2R,3R)-3-(4-cyclopropylbenzamido)-2-methylpiperidin-1-yl]-3-({4-[(1-methylpiperidin-3-yl)oxy]phenyl}amino)pyrazine-2-carboxamide] |
| > 10000 | 100 to 1000 | 100 to 1000 | 1000 to 10000 | 10 to 100 | C[C@@H]1[C@H](NC(=O)c2ccc(C(C)(C)N(C)C)cc2)CCCN1c1cnc(C(N)=O)c(Nc2cnn(C)c2)n1 [Example D-108, 5-[(2R,3R)-3-{4-[2-(dimethylamino)propan-2-yl]benzamido}-2-methylpiperidin-1-yl]-3-[(1-methyl-1H-pyrazol-4-yl)amino]pyrazine-2-carboxamide] |
| 1000 to 10000 | 100 to 1000 | 1000 to 10000 | 1000 to 10000 | 100 to 1000 | C[C@@H]1[C@H](NC(=O)N(C)C)CCCN1c1cnc(C(N)=O)c(Nc2ccc(C(=O)N3CCN(C)CC3)cc2)n1 [Example D-110, 5-[(2R,3R)-3-[(dimethylcarbamoyl)amino]-2-methylpiperidin-1-yl]-3-{[4-(4-methylpiperazine-1-carbonyl)phenyl]amino}pyrazine-2-carboxamide] |
| 100 to 1000 | 10 to 100 | 100 to 1000 | 100 to 1000 | 100 to 1000 | C[C@@H]1[C@H](NC(=O)c2ccc(C3CC3)cc2F)CCCN1c1cnc(C(N)=O)c(Nc2ccc(CN3CCN(C)CC3)cc2)n1 [Example D-113, 5-[(2R,3R)-3-(4-cyclopropyl-2-fluorobenzamido)-2-methylpiperidin-1-yl]-3-({4-[(4-methylpiperazin-1-yl)methyl]phenyl}amino)pyrazine-2-carboxamide] |
| > 10000 | > 10000 | > 10000 | > 10000 | 100 to 1000 | C[C@@H]1[C@H](NC(=O)c2ccc(C3CC3)cc2F)CCCN1c1cnc(C(N)=O)c(Nc2ccc3ncccc3c2)n1 [Example D-114, 5-[(2R,3R)-3-(4-cyclopropyl-2-fluorobenzamido)-2-methylpiperidin-1-yl]-3-[(quinolin-6-yl)amino]pyrazine-2-carboxamide] |

The remaining lines, values behind:

| Structure (SMILES) | IC50 (JAK3) [nM] | IC50 (LCK) [nM] | IC50 (ITK) [nM] | IC50 (EGFR) [nM] | IC50 (SRC) [nM] |
| --- | --- | --- | --- | --- | --- |
| C[C@@H]1[C@H](NC(=O)c2ccc(C3CC3)cc2)CCCN1c1cnc(C(N)=O)c(Nc2ccc(OC3C[C@H]4CC[C@@H](C3)N4C)cc2)n1 (stereo partly drawn) [Example D-104, 5-[(2R,3R)-3-(4-cyclopropylbenzamido)-2-methylpiperidin-1-yl]-3-[(4-{[(1R,5S)-8-methyl-8-azabicyclo[3.2.1]octan-3-yl]oxy}phenyl)amino]pyrazine-2-carboxamide] | 100 to 1000 | 10 to 100 | 10 to 100 | 100 to 1000 | 10 to 100 |
| C[C@@H]1[C@H](NC(=O)c2ccc(C3CC3)cc2)CCCN1c1cnc(C(N)=O)c(Nc2ccc(OC3C[C@H]4CC[C@@H](C3)N4C)cc2)n1 (stereo partly drawn) [Example D-106, 5-[(2R,3R)-3-(4-cyclopropylbenzamido)-2-methylpiperidin-1-yl]-3-[(4-{[(1R,5S)-8-methyl-8-azabicyclo[3.2.1]octan-3-yl]oxy}phenyl)amino]pyrazine-2-carboxamide] | 100 to 1000 | 10 to 100 | 10 to 100 | 100 to 1000 | 10 to 100 |
| CC(=O)NC(C)(C)c1ccc(C(=O)N[C@@H]2CCCN(c3cnc(C(N)=O)c(Nc4cnn(C)c4)n3)[C@@H]2C)cc1 [Example D-107, 5-[(2R,3R)-3-[4-(2-acetamidopropan-2-yl)benzamido]-2-methylpiperidin-1-yl]-3-[(1-methyl-1H-pyrazol-4-yl)amino]pyrazine-2-carboxamide] | 1000 to 10000 | 100 to 1000 | 100 to 1000 | 1000 to 10000 | 10 to 100 |
| CNC(=O)N[C@@H]1CCCN(c2cnc(C(N)=O)c(Nc3cnn(C)c3)n2)[C@@H]1C [Example D-109, 3-[(1-methyl-1H-pyrazol-4-yl)amino]-5-[(2R,3R)-2-methyl-3-[(methylcarbamoyl)amino]piperidin-1-yl]pyrazine-2-carboxamide] | 1000 to 10000 | 100 to 1000 | 100 to 1000 | 1000 to 10000 | 100 to 1000 |
| C[C@@H]1[C@H](NC(=O)N(C)C)CCCN1c1cnc(C(N)=O)c(Nc2ccc(N3CCN(C)CC3)cc2)n1 [Example D-111, 5-[(2R,3R)-3-[(dimethylcarbamoyl)amino]-2-methylpiperidin-1-yl]-3-{[4-(4-methylpiperazin-1-yl)phenyl]amino}pyrazine-2-carboxamide] | 100 to 1000 | 100 to 1000 | 100 to 1000 | 100 to 1000 | 10 to 100 |
| C[C@@H]1[C@H](NC(=O)c2ccc(C3CC3)cc2)CCCN1c1cnc(C(N)=O)c(Nc2ccc(C3(C)CCN(C4CCCC4)CC3)cc2)n1 [Example D-112, 3-{[4-(1-cyclopentyl-4-methylpiperidin-4-yl)phenyl]amino}-5-[(2R,3R)-3-(4-cyclopropylbenzamido)-2-methylpiperidin-1-yl]pyrazine-2-carboxamide] | 100 to 1000 | < 10 | 10 to 100 | 100 to 1000 | ≤ 10 |
| Cc1cc(Nc2cc(N3CCC[C@@H](NC(=O)c4ccc(C5CC5)cc4F)[C@H]3C)cnc2C(N)=O)sn1 [Example D-116, 5-[(2R,3R)-3-(4-cyclopropyl-2-fluorobenzamido)-2-methylpiperidin-1-yl]-3-[(3-methyl-1,2-thiazol-5-yl)amino]pyridine-2-carboxamide] | 1000 to 10000 | 10 to 100 | 1000 to 10000 | 1000 to 10000 | 100 to 1000 |
